According to patent US9464082B2, “Aryl and arylalkyl substituted pyrazolyl and pyrimidinyl tricyclic enones as antioxidant inflammation modulators” (AbbVie Inc., priority 2014, dated 2016):

Tested on: IFNγ-Induced NO Production
Experiment: Nitric Oxide Suppression Assay (Suppression of IFNγ-Induced NO Production)
Format: cell-based
Conditions: RAW264.7; RAW 264.7 mouse macrophage cells; 2 hour pre-treatment with compound (3 μM to 0.3 nM, 10 point curve); 20 ng/mL interferon gamma, ~18 hour; Griess detection; n=2-3 in duplicates
Outline: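 Mouse RAW 264.7 macrophages pre-treated 2 h at 37 °C with compound (3 μM to 0.3 nM, 10 points; DMSO ≤1%), then stimulated with 20 ng/mL interferon gamma for ~18 h. Supernatant nitrite measured by Griess reaction, absorbance 520–550 nm. IC50 from curve fit of signal normalised to IFNγ alone, mean n=2-3 in duplicate.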

SMILES	IC50 [nM]
COc1ccc([C@]23C=C(C#N)C(=O)[C@@H](C)[C@@H]2CCc2cncnc23)cc1 [Example 70, (6aS,7S,10aR)-10a-(4-methoxyphenyl)-7-methyl-8-oxo-5,6,6a,7,8,10a-hexahydrobenzo[h]quinazoline-9-carbonitrile]	5.27
COc1nc(Nc2ccc(Br)cc2)nc2c1CC[C@H]1[C@H](C)C(=O)C(C#N)=C[C@]21c1ccccc1 [Example 15, (6aS,7S,10aR)-2-[(4-bromophenyl)amino]-4-methoxy-7-methyl-8-oxo-10a-phenyl-5,6,6a,7,8,10a-hexahydrobenzo[h]quinazoline-9-carbonitrile]	30
C[C@@H]1C(=O)C(C#N)=C[C@]2(c3cccc(F)c3)c3n[nH]c(-c4cccc(CCCO)c4)c3CCC12 (stereo partly drawn) [Example 78, (6S,9aR)-9a-(3-fluorophenyl)-3-[3-(3-hydroxypropyl)phenyl]-6-methyl-7-oxo-4,5,5a,6,7,9a-hexahydro-2H-benzo[g]indazole-8-carbonitrile]	21.8
C[C@@H]1C(=O)C(C#N)=C[C@]2(c3ccccc3)c3n[nH]c(-c4cccc(CCCO)c4)c3CC[C@@H]12 [Example 123, (5aS,6S,9aR)-3-[3-(3-hydroxypropyl)phenyl]-6-methyl-7-oxo-9a-phenyl-4,5,5a,6,7,9a-hexahydro-2H-benzo[g]indazole-8-carbonitrile]	7.72
C[C@@H]1C(=O)C(C#N)=C[C@]2(c3ccccc3)c3nn(C)c(-c4cccnc4)c3CC[C@@H]12 [Example 178, (5aS,6S,9aR)-2,6-dimethyl-7-oxo-9a-phenyl-3-(pyridin-3-yl)-4,5,5a,6,7,9a-hexahydro-2H-benzo[g]indazole-8-carbonitrile]	5.4
C[C@@H]1C(=O)C(C#N)=C[C@]2(c3ccccc3)c3nn(C)c(-c4cccc(-c5ccc(N(S(C)(=O)=O)S(C)(=O)=O)cc5)c4)c3CC[C@@H]12 [Example 152, N-{3′-[(5aS,6S,9aR)-8-cyano-2,6-dimethyl-7-oxo-9a-phenyl-4,5,5a,6,7,9a-hexahydro-2H-benzo[g]indazol-3-yl]biphenyl-4-yl}-N-(methylsulfonyl)methanesulfonamide]	11.5
C[C@@H]1C(=O)C(C#N)=C[C@]2(c3ccc(F)cc3)c3nn(C(=O)CN)cc3CC[C@@H]12 [Example 82, (5aS,6S,9aR)-9a-(4-fluorophenyl)-2-glycyl-6-methyl-7-oxo-4,5,5a,6,7,9a-hexahydro-2H-benzo[g]indazole-8-carbonitrile]	31.3
COC(=O)CCc1cccc(-c2nc(C)nc3c2CC[C@H]2[C@H](C)C(=O)C(C#N)=C[C@]32c2ccccc2)c1 [Example 154, methyl 3-{3-[(6aS,7S,10aR)-9-cyano-2,7-dimethyl-8-oxo-10a-phenyl-5,6,6a,7,8,10a-hexahydrobenzo[h]quinazolin-4-yl]phenyl}propanoate]	47.5
C[C@@H]1C(=O)C(C#N)=C[C@]2(c3ccc(O)cc3)c3ncncc3CC[C@@H]12 [Example 121, (6aS,7S,10aR)-10a-(4-hydroxyphenyl)-7-methyl-8-oxo-5,6,6a,7,8,10a-hexahydrobenzo[h]quinazoline-9-carbonitrile]	8.47
Cc1nc(-c2cccc(-c3ccc(O)cc3)c2)c2c(n1)[C@@]1(c3ccccc3)C=C(C#N)C(=O)[C@@H](C)[C@@H]1CC2 [Example 119, (6aS,7S,10aR)-4-(4′-hydroxybiphenyl-3-yl)-2,7-dimethyl-8-oxo-10a-phenyl-5,6,6a,7,8,10a-hexahydrobenzo[h]quinazoline-9-carbonitrile]	6.5
C[C@@H]1C(=O)C(C#N)=C[C@]2(c3ccccc3)c3n[nH]c(-c4ccnnc4)c3CC[C@@H]12 [Example 140, (5aS,6S,9aR)-6-methyl-7-oxo-9a-phenyl-3-(pyridazin-4-yl)-4,5,5a,6,7,9a-hexahydro-2H-benzo[g]indazole-8-carbonitrile]	8.45
COc1nc(C)nc2c1CC[C@H]1[C@H](C)C(=O)C(C#N)=C[C@]21c1ccccc1 [Example 13, (6aS,7S,10aR)-4-methoxy-2,7-dimethyl-8-oxo-10a-phenyl-5,6,6a,7,8,10a-hexahydrobenzo[h]quinazoline-9-carbonitrile]	4.8
C[C@@H]1C(=O)C(C#N)=C[C@]2(c3ccccc3)c3n[nH]c(-c4cnn(-c5cccnc5)c4)c3CC[C@@H]12 [Example 158, (5aS,6S,9aR)-6-methyl-7-oxo-9a-phenyl-3-[1-(pyridin-3-yl)-1H-pyrazol-4-yl]-4,5,5a,6,7,9a-hexahydro-2H-benzo[g]indazole-8-carbonitrile]	33
C[C@@H]1C(=O)C(C#N)=C[C@]2(c3ccccc3)c3nn(C(=O)Oc4ccccc4)cc3CC[C@@H]12 [Example 37, phenyl (5aS,6S,9aR)-8-cyano-6-methyl-7-oxo-9a-phenyl-4,5,5a,6,7,9a-hexahydro-2H-benzo[g]indazole-2-carboxylate]	60.5
C[C@@H]1C(=O)C(C#N)=C[C@]2(c3ccccc3)c3nn(C)c(-c4cccc(-c5ccc(N)cc5)c4)c3CC[C@@H]12 [Example 149, (5aS,6S,9aR)-3-(4′-aminobiphenyl-3-yl)-2,6-dimethyl-7-oxo-9a-phenyl-4,5,5a,6,7,9a-hexahydro-2H-benzo[g]indazole-8-carbonitrile]	7.32
Cc1nc(-c2ccncc2)c2c(n1)[C@@]1(c3ccccc3)C=C(C#N)C(=O)[C@@H](C)[C@@H]1CC2 [Example 27, (6aS,7S,10aR)-2,7-dimethyl-8-oxo-10a-phenyl-4-(pyridin-4-yl)-5,6,6a,7,8,10a-hexahydrobenzo[h]quinazoline-9-carbonitrile]	5.9
C[C@@H]1C(=O)C(C#N)=C[C@]2(c3ccccc3)c3nc(-c4ccc(C(=O)N(C)C)cc4)ncc3CC[C@@H]12 [Example 138, 4-[(6aS,7S,10aR)-9-cyano-7-methyl-8-oxo-10a-phenyl-5,6,6a,7,8,10a-hexahydrobenzo[h]quinazolin-2-yl]-N,N-dimethylbenzamide]	5.26
Cc1nc(-c2cncnc2)c2c(n1)[C@@]1(c3ccccc3)C=C(C#N)C(=O)[C@@H](C)[C@@H]1CC2 [Example 22, (6aS,7S,10aR)-2,7-dimethyl-8-oxo-10a-phenyl-4-(pyrimidin-5-yl)-5,6,6a,7,8,10a-hexahydrobenzo[h]quinazoline-9-carbonitrile]	31.8
C[C@@H]1C(=O)C(C#N)=C[C@]2(c3ccccc3)c3nn(S(=O)(=O)c4ccccc4)cc3CC[C@@H]12 [Example 41, (5aS,6S,9aR)-6-methyl-7-oxo-9a-phenyl-2-(phenylsulfonyl)-4,5,5a,6,7,9a-hexahydro-2H-benzo[g]indazole-8-carbonitrile]	1180
Cc1nc(-c2cccc(CCC(=O)O)c2)c2c(n1)[C@@]1(c3ccccc3)C=C(C#N)C(=O)[C@@H](C)[C@@H]1CC2 [Example 155, 3-{3-[(6aS,7S,10aR)-9-cyano-2,7-dimethyl-8-oxo-10a-phenyl-5,6,6a,7,8,10a-hexahydrobenzo[h]quinazolin-4-yl]phenyl}propanoic acid]	107
Cc1nc(-c2ccc(-c3ccncc3)cc2)c2c(n1)[C@@]1(c3ccccc3)C=C(C#N)C(=O)[C@@H](C)[C@@H]1CC2 [Example 122, (6aS,7S,10aR)-2,7-dimethyl-8-oxo-10a-phenyl-4-[4-(pyridin-4-yl)phenyl]-5,6,6a,7,8,10a-hexahydrobenzo[h]quinazoline-9-carbonitrile]	12.7
C[C@@H]1C(=O)C(C#N)=C[C@]2(c3ccccc3)c3nn(C)c(-c4ccc(-c5cncnc5)cc4)c3CC[C@@H]12 [Example 144, (5aS,6S,9aR)-2,6-dimethyl-7-oxo-9a-phenyl-3-[4-(pyrimidin-5-yl)phenyl]-4,5,5a,6,7,9a-hexahydro-2H-benzo[g]indazole-8-carbonitrile]	18.1
Cc1nc(-c2cccc(CCC(N)=O)c2)c2c(n1)[C@@]1(c3ccccc3)C=C(C#N)C(=O)[C@@H](C)[C@@H]1CC2 [Example 156, 3-{3-[(6aS,7S,10aR)-9-cyano-2,7-dimethyl-8-oxo-10a-phenyl-5,6,6a,7,8,10a-hexahydrobenzo[h]quinazolin-4-yl]phenyl}propanamide]	3.57
C[C@@H]1C(=O)C(C#N)=C[C@]2(c3ccccc3)c3nn(C)c(-c4cccc(-c5ccc(O)cc5)c4)c3CC[C@@H]12 [Example 170, (5aS,6S,9aR)-3-(4′-hydroxybiphenyl-3-yl)-2,6-dimethyl-7-oxo-9a-phenyl-4,5,5a,6,7,9a-hexahydro-2H-benzo[g]indazole-8-carbonitrile]	6.96
